Reference: patent US4737513A, “Novel pyrrole derivatives” (Roussel Uclaf, priority 1984, dated 1988)

Key:
Type in all cases: in vivo
[1] = tested on: house flies; experiment: Study of knock-down activity of house flies (direct atomization in a Kearns and March chamber); details: for KT 50: concentration at 0.1 g/l, female house flies 4 days old, acetone (5%) and Isopar L
Method: (1) Study of knock-down activity of house flies
The test insects were female house flies 4 days old and the test was effected by direct atomization in a Kearns and March chamber using as solvent a mixture of acetone (5%) and Isopar L (petrol solvent) (quantity of solvent used, 2 ml in one second). 50 insects were used per treatment and checks were made every minute for 10 minutes, then at 15 minutes, and the KT50 was determined by the usual methods.

[2] = tested on: cockroaches (Blatella germanica); experiment: Study of activity by tarsal contact on cockroaches; details: male Blatella germanica; 1 hour on dried acetone deposit; mortality checked at 24 hours, 48 hours, 3 days and 5 days
Method: (2) Study of activity by tarsal contact on cockroaches
The insects tested were male cockroaches (Blatella germanica) and the test was carried out by depositing an acetone solution of a certain concentration on the bottom of a Petri dish 20 cm in diameter. After this had dried, 20 male cockroaches were allowed to stay there per concentration for 1 hour, after which they were transferred to a healthy medium and their mortality was checked at 24 hours, 48 hours, 3 days and 5 days. The result was expressed as lethal concentration 50 (LC 50) in mg/m^2.

[3] = tested on: Tetranychus urticae; experiment: Activity on Tetranychus urticae, test of lethal effect on adults; details: for LD 50: females on treated bean leaves, checked after 80 hours of contact
Method: (4) Activity on Tetranychus urticae, test of lethal effect on adults
Bean plants having two cotyledon leaves were used which were treated with a Fisher gun with an acetone solution of the product. After drying, 25 females of the acaridan Tetranychus urticae were placed on each leaf, that is 50 individuals per experimental dose per plant. The efficacity was checked after 80 hours of contact, and the LD 50 was indicated in mg/hl.

[4] = tested on: Aphis cracivora; experiment: Study of lethal effect on Aphis cracivora (contact-ingestion method); parameters: unit not given here; details: adults 7 days old; 1 hour contact with treated bean leaf; mortality checked after 24 hours
Method: (3) Study of lethal effect on Aphis cracivora
Adults 7 days old were used with 10 aphis per concentration using a contact-ingestion method. The treatment was carried out with a Fisher gun on a bean leaf which was placed in a plastic Petri dish on a disc of moistened paper. 2 ml of an acetone solution of the product under test were used with 1 ml per face of the leaf and the insect infestation was carried out after drying the leaf. The insects were kept in contact with the leaf for 1 hour and then they were placed on untreated leaves.

| SMILES | KT 50 [1] | lethal concentration 50 (LC 50) [2] | LD 50 [3] | knock-down power ([1]; general statement in the description) | acaricidal effect on Tetranychus urticae ([3]; conclusion of the test) | LD 50 [4] |
| --- | --- | --- | --- | --- | --- | --- |
| C#CCn1cc(COC(=O)[C@@H]2[C@H](/C=C(/F)C(=O)OCC)C2(C)C)cc1C(F)(F)F [Example 70, [1-(2-propynyl)-2,2,2-trifluoromethyl-1H-pyrrol-4-yl]-methyl (1R,cis,ΔE) 2,2-dimethyl-3-[2-fluoro-3-ethoxy-3-oxo-1-propenyl]-cyclopropane carboxylate] | 3.9 min | 4.5 mg/m^2 | 2126 mg/hl | – | – | – |
| C#CCn1cc(COC(=O)[C@@H]2[C@H](/C=C(/F)C(=O)OC(C)(C)C)C2(C)C)c(C(F)(F)F)c1 [Example 45, [1-(2-propynyl)-3-trifluoromethyl)-1H-pyrrol-4-yl]methyl (1R,cisΔE) 2,2-dimethyl-3-[2-fluoro-3-oxo-3-tertbutoxypropenyl]-cyclopropane carboxylate] | 6.1 min | 6.4 mg/m^2 | 264 mg/hl | – | – | – |
| C#CCn1ccc(COC(=O)[C@@H]2[C@H](/C=C(/F)C(=O)OC(C)(C)C)C2(C)C)c1C(F)(F)F [Example 40, [2-trifluoromethyl-1-(2-propynyl)-1H-pyrrol-3-yl]-methyl (1R,cis,ΔE) 2,2-dimethyl-3-(3-tertbutyloxy-3-oxo-2-fluoropenyl)-cyclopropane carboxylate] | 5.6 min | – | 32 mg/hl | particularly remarkable | remarkable acaricidal effect | – |
| C#CCn1cc(COC(=O)[C@@H]2[C@H](/C=C(/F)C(=O)OCC)C2(C)C)c(C(F)(F)F)c1 [Example 72, [1-(2-propynyl)-3,3,3-trifluoromethyl-1H-pyrrol-4-yl]methyl (1R,cis,ΔE) 2,2-dimethyl-3-[2-fluoro-3-ethoxy-3-oxo-1-propenyl]-cyclopropane carboxylate] | 3.8 min | 6.7 mg/m^2 | – | – | – | – |
| C#CCn1ccc(COC(=O)[C@@H]2[C@H](/C=C(\Cl)C(F)(F)F)C2(C)C)c1C#N [Example 43, [2-cyano-1-(2-propynyl)-1H-pyrrol-3-yl]-methyl (1R,cisΔZ) 2,2-dimethyl-3-[(2-chloro-3,3,3-trifluoro)-1-propenyl]-cyclopropane carboxylate] | 2.9 min | 2.8 mg/m^2 | 342 mg/hl | – | – | 7.5 |
| C#CCn1ccc(COC(=O)[C@@H]2[C@@H](C=C(Cl)C(F)(F)F)C2(C)C)c1C#N [Example 49, [1-(2-propynyl)-2-cyano-1H-pyrrol-3-yl]-methyl 1R, trans (E,1/3) (Z,2/3) 2,2-dimethyl-3-(2-chloro-2-trifluoromethylethenyl)-cyclopropane carboxylate] | 11.0 min | – | – | – | – | 6.5 |
